The molecules below were run against Xanthine dehydrogenase/oxidase (Bos taurus, UniProt P80457) (assay: XO inhibitory activity). Conditions: pH 7.6; 25 °C.
Xanthine dehydrogenase/oxidase, sequence (P80457 whole entry): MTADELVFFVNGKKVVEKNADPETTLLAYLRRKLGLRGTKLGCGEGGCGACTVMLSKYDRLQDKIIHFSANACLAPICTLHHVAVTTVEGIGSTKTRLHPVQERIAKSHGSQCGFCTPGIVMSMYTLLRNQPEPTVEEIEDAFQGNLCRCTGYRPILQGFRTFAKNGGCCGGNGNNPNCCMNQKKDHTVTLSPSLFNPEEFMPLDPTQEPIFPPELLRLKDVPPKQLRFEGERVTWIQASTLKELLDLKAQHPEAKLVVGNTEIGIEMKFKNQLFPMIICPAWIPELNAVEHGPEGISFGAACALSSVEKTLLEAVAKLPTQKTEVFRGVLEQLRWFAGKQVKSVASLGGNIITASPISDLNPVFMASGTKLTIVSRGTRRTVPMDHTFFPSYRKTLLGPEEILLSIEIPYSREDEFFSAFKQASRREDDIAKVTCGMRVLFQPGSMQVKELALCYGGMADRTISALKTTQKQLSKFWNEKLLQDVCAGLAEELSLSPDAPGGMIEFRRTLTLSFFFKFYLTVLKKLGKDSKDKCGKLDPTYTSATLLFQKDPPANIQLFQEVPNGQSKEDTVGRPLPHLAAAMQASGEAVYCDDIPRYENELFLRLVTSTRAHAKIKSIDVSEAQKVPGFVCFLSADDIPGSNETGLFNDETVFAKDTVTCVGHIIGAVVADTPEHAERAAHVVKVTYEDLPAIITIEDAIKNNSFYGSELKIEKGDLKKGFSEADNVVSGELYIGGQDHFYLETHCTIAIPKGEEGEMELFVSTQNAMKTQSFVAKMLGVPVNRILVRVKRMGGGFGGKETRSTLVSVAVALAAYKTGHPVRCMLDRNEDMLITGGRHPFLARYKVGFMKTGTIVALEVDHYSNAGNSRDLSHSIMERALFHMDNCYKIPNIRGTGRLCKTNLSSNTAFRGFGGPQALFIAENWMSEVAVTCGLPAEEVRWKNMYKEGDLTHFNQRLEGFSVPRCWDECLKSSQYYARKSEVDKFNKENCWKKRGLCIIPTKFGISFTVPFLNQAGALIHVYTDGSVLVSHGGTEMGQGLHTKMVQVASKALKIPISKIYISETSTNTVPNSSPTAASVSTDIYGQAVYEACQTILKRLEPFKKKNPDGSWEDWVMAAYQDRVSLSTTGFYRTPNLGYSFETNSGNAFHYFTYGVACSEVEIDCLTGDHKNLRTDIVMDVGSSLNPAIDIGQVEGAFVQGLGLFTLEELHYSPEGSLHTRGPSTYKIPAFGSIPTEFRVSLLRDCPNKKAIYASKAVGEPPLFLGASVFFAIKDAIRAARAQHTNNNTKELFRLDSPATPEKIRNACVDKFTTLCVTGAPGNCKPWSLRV
Experimental: The enzyme was pre-incubated for 5 min, with test compound, dissolved in DMSO (1% v/v). The reaction was initiated by the addition of xanthine.
`Oc1ccccc1Cn1c(-c2ccccc2O)nc2ccccc21` gave an IC50 of 8.7 µM.
`c1ccc(Cn2c(-c3ccccc3)nc3ccccc32)cc1` [1‐benzyl‐2‐phenyl‐1,3‐benzodiazole (B10)] gave an IC50 of 9.7 µM.
Work on `Oc1ccc2ccccc2c1-c1nc2ccccc2n1Cc1ccc2ccccc2c1O` [1‐{1‐[(1‐hydroxynaphthalen‐2‐yl)methyl]‐1,3‐ benzodiazol‐2‐yl}naphthalen‐2‐ol (B11)] yielded an IC50 of 5.3 µM.
Molecule `Clc1ccccc1Cn1c(-c2ccccc2Cl)nc2ccccc21` [2‐(2‐chlorophenyl)‐1‐[(2‐chlorophenyl)methyl]‐1,3‐ benzodiazole (B3)] has an IC50 of 4.4 µM.
Molecule `Cc1ccccc1Cn1c(-c2ccccc2C)nc2ccccc21` [2‐(2‐methylphenyl)‐1‐[(2‐methylphenyl)methyl]‐1,3‐ benzodiazole (B4)] has an IC50 of 5.6 µM.
Molecule `Clc1cccc(Cn2c(-c3cccc(Cl)c3)nc3ccccc32)c1` [2‐(3‐chlorophenyl)‐1‐[(3‐chlorophenyl)methyl]‐1,3‐ benzodiazole (B8)] has an IC50 of 8.2 µM.
`COc1cccc(Cn2c(-c3cccc(OC)c3)nc3ccccc32)c1` [2‐(3‐methoxyphenyl)‐1‐[(3‐methoxyphenyl)methyl]‐ 1,3‐benzodiazole (B13)] was tested, and the IC50 was 5.1 µM.
`Cc1cccc(Cn2c(-c3cccc(C)c3)nc3ccccc32)c1` [2‐(3‐methylphenyl)‐1‐[(3‐methylphenyl)methyl]‐1,3‐ benzodiazole (B9)] showed an IC50 of 4.3 µM.
`Clc1ccc(Cn2c(-c3ccc(Cl)cc3)nc3ccccc32)cc1` [2‐(4‐chlorophenyl)‐1‐[(4‐chlorophenyl)methyl]‐1,3‐ benzodiazole (B2)] gave an IC50 of 6.3 µM.
With `COc1ccc(Cn2c(-c3ccc(OC)cc3)nc3ccccc32)cc1` [2‐(4‐methoxyphenyl)‐1‐[(4‐methoxyphenyl)methyl]‐ 1,3‐benzodiazole (B14)] the IC50 was 8.5 µM.
In the case of `Cc1ccc(Cn2c(-c3ccc(C)cc3)nc3ccccc32)cc1` [2‐(4‐methylphenyl)‐1‐[(4‐methylphenyl)methyl]‐1,3‐ benzodiazole (B5)], the IC50 is reported as 7.5 µM.
Work on `c1cncc(Cn2c(-c3cccnc3)nc3ccccc32)c1` [2‐(pyridin‐3‐yl)‐1‐(pyridin‐3‐ylmethyl)‐1,3‐ benzodiazole (B12)] yielded an IC50 of 7.1 µM.
`Oc1cccc(Cn2c(-c3cccc(O)c3)nc3ccccc32)c1` [3‐{1‐[(3‐hydroxyphenyl)methyl]‐1,3‐benzodiazol‐2‐ yl}phenol (B7)] was tested, and the IC50 was 5.8 µM.
For `Oc1ccc(Cn2c(-c3ccc(O)cc3)nc3ccccc32)cc1` [4‐{1‐[(4‐hydroxyphenyl)methyl]‐1,3‐benzodiazol‐2‐ yl}phenol (B6)], the IC50 was 4.5 µM.

— BindingDB's records for doi:10.1111/cbdd.12141 (Konkuk University, 2013)
